Tests used:
[1] = refractive index (Na D-line) (dimensionless); conditions: 100 kPa, Liquid, Standard Abbe refractometry
[2] = 100 kPa, Liquid; for electrical conductivity: Frequency=0.0006 MHz, Alternating current cell with electrodes; for viscosity: Concentric cylinders viscometry; for mass density: Vibrating tube method

CC[N+](C)(C)CCCO.O=S(=O)([N-]S(=O)(=O)C(F)(F)F)C(F)(F)F
Conditions	electrical conductivity [S/m]	mass density [kg/m3]	refractive index	viscosity [mPa·s]
[1], 283.15 K	–	–	1.4253	–
[1], 288.15 K	–	–	1.4241	–
[1], 293.15 K	–	–	1.4228	–
[1], 298.15 K	–	–	1.4215	–
[1], 303.15 K	–	–	1.4203	–
[1], 308.15 K	–	–	1.419	–
[1], 313.15 K	–	–	1.4176	–
[1], 318.15 K	–	–	1.4164	–
[1], 323.15 K	–	–	1.4151	–
[1], 328.15 K	–	–	1.4139	–
[1], 333.15 K	–	–	1.4126	–
[1], 338.15 K	–	–	1.4114	–
[1], 343.15 K	–	–	1.4101	–
[1], 348.15 K	–	–	1.4089	–
[1], 353.15 K	–	–	1.4076	–
[1], 358.15 K	–	–	1.4064	–
[2], 283.15 K	0.049	–	–	–
[2], 288.15 K	0.069	1472.2	–	314
[2], 289.15 K	–	1471.4	–	–
[2], 290.15 K	–	1470.5	–	–
[2], 291.15 K	–	1469.6	–	–
[2], 292.15 K	–	1468.7	–	–
[2], 293.15 K	0.095	1467.8	–	220.1
[2], 294.15 K	–	1466.9	–	–
[2], 295.15 K	–	1466.1	–	–
[2], 296.15 K	–	1465.2	–	–
[2], 297.15 K	–	1464.3	–	–
[2], 298.15 K	0.125	1463.4	–	166
[2], 299.16 K	–	1462.5	–	–
[2], 300.16 K	–	1461.7	–	–
[2], 301.15 K	–	1460.8	–	–
[2], 302.15 K	–	1459.9	–	–
[2], 303.15 K	0.162	1459	–	125.4
[2], 304.15 K	–	1458.2	–	–
[2], 305.15 K	–	1457.3	–	–
[2], 306.15 K	–	1456.4	–	–
[2], 307.15 K	–	1455.5	–	–
[2], 308.15 K	0.204	1454.7	–	96.7
[2], 309.15 K	–	1453.8	–	–
[2], 310.15 K	–	1452.9	–	–
[2], 311.15 K	–	1452	–	–
[2], 312.15 K	–	1451.2	–	–
[2], 313.15 K	0.253	1450.3	–	76.8
[2], 314.15 K	–	1449.4	–	–
[2], 315.15 K	–	1448.6	–	–
[2], 316.15 K	–	1447.7	–	–
[2], 317.15 K	–	1446.8	–	–
[2], 318.15 K	0.309	1446	–	60.9
[2], 319.15 K	–	1445.1	–	–
[2], 320.15 K	–	1444.2	–	–
[2], 321.15 K	–	1443.4	–	–
[2], 322.15 K	–	1442.5	–	–
[2], 323.15 K	0.371	1441.6	–	49.5
[2], 324.15 K	–	1440.8	–	–
[2], 325.15 K	–	1439.9	–	–
[2], 326.15 K	–	1439	–	–
[2], 327.15 K	–	1438.2	–	–
[2], 328.15 K	–	1437.3	–	40.8
[2], 329.15 K	–	1436.4	–	–
[2], 330.15 K	–	1435.6	–	–
[2], 331.15 K	–	1434.7	–	–
[2], 332.15 K	–	1433.9	–	–
[2], 333.15 K	–	1433	–	34.5
[2], 334.15 K	–	1432.1	–	–
[2], 335.16 K	–	1431.3	–	–
[2], 336.15 K	–	1430.4	–	–
[2], 337.15 K	–	1429.6	–	–
[2], 338.15 K	–	1428.7	–	28.8
[2], 339.15 K	–	1427.8	–	–
[2], 340.15 K	–	1427	–	–
[2], 341.15 K	–	1426.1	–	–
[2], 342.15 K	–	1425.3	–	–
[2], 343.15 K	–	1424.4	–	24.6
[2], 344.15 K	–	1423.6	–	–
[2], 345.15 K	–	1422.7	–	–
[2], 346.15 K	–	1421.9	–	–
[2], 347.15 K	–	1421	–	–
[2], 348.15 K	–	1420.1	–	21.2
[2], 349.15 K	–	1419.3	–	–
[2], 350.15 K	–	1418.4	–	–
[2], 351.15 K	–	1417.6	–	–
[2], 352.15 K	–	1416.7	–	–
[2], 353.15 K	–	1415.9	–	18.7
[2], 354.15 K	–	1415	–	–
[2], 355.15 K	–	1414.2	–	–
[2], 356.15 K	–	1413.3	–	–
[2], 357.15 K	–	1412.5	–	–
[2], 358.15 K	–	1411.7	–	16.2
[2], 359.15 K	–	1410.8	–	–
[2], 360.15 K	–	1410	–	–
[2], 361.15 K	–	1409.1	–	–
[2], 362.16 K	–	1408.3	–	–
[2], 363.15 K	–	1407.4	–	14.3

Source: the NIST ThermoML archive (doi:10.1021/acs.jced.9b00442)
